Legend:
[1] = Dark toxicity in mouse B16F10 cells assessed as reduction in cell viability after 24 hrs by MTT assay; assay type: cell-based, B16-F10
[2] = Dark toxicity in human PBMC assessed as reduction in cell viability after 24 hrs by MTT assay; assay type: cell-based
[3] = Dark toxicity in human C8161 cells assessed as reduction in cell viability after 24 hrs by MTT assay; assay type: cell-based
PBMC [4] = test: Phototoxicity in human PBMC assessed as reduction in cell viability under irradiation with >500 nm light after 24 hrs by MTT assay; assay type: cell-based; settings: light or radiation study
PBMC [5] = test: Phototoxicity in human PBMC assessed as reduction in cell viability at 20 uM under irradiation with >500 nm light after 24 hrs by MTT assay; assay type: cell-based
B16-F10 = test: Phototoxicity in mouse B16F10 cells assessed as reduction in cell viability under irradiation with >500 nm light after 24 hrs by MTT assay; assay type: functional, cell-based; settings: B16-F10, light or radiation study
[6] = Phototoxicity in human C8161 cells assessed as reduction in cell viability under irradiation with >500 nm light after 24 hrs by MTT assay; assay type: functional, cell-based; settings: C8161, light or radiation study
[7] = Phototoxicity in human MCF7/DX cells assessed as inhibition of cell growth at 1 uM pre-incubated for 24 hrs before photoirradiation with 530 to 550 nm light and measured after 24 hrs post irradiation by MTT assay; assay type: functional; settings: light or radiation study, read-out: GI
MCF7 [8] = test: Phototoxicity in wild type human MCF7 cells assessed as inhibition of cell growth at 1 uM pre-incubated for 24 hrs before photoirradiation with 630 nm light and measured after 24 hrs post irradiation by MTT assay; assay type: functional; settings: MCF7, light or radiation study, read-out: GI
[9] = Phototoxicity in human MCF7/DX cells assessed as inhibition of cell growth at 1 uM pre-incubated for 4 hrs before photoirradiation with 530 to 550 nm light and measured after 24 hrs post irradiation by MTT assay; assay type: functional; settings: light or radiation study, read-out: GI
MCF7 [10] = test: Phototoxicity in wild type human MCF7 cells assessed as inhibition of cell growth at 1 uM pre-incubated for 4 hrs before photoirradiation with 630 nm light and measured after 24 hrs post irradiation by MTT assay; assay type: functional; settings: MCF7, light or radiation study, read-out: GI
MCF7 [11] = test: Phototoxicity in wild type human MCF7 cells assessed as inhibition of cell growth at 1 uM pre-incubated for 24 hrs before photoirradiation with 530 to 550 nm light and measured after 24 hrs post irradiation by MTT assay; assay type: functional; settings: MCF7, light or radiation study, read-out: GI
[12] = Dark toxicity in wild type human MCF7 cells assessed as inhibition of cell growth at 1 uM after 24 hrs by MTT assay; assay type: cell-based; settings: read-out: GI
[13] = Dark toxicity in human MCF7/DX cells assessed as inhibition of cell growth at 1 uM after 24 hrs by MTT assay; assay type: cell-based; settings: read-out: GI
MCF7 [14] = test: Phototoxicity in wild type human MCF7 cells assessed as inhibition of cell growth at 1 uM pre-incubated for 4 hrs before photoirradiation with 530 to 550 nm light and measured after 24 hrs post irradiation by MTT assay; assay type: functional; settings: MCF7, light or radiation study, read-out: GI
[15] = Phototoxicity in human MCF7/DX cells assessed as inhibition of cell growth at 1 uM pre-incubated for 4 hrs before photoirradiation with 630 nm light and measured after 24 hrs post irradiation by MTT assay; assay type: functional; settings: light or radiation study, read-out: GI
[16] = Phototoxicity in human MCF7/DX cells assessed as inhibition of cell growth at 1 uM pre-incubated for 24 hrs before photoirradiation with 630 nm light and measured after 24 hrs post irradiation by MTT assay; assay type: functional; settings: light or radiation study, read-out: GI
HeLa [17] = test: Phototoxicity in human HeLa cells assessed as reduction in cell viability in presence of irradiation with 625 nm laser light by MTT assay; assay type: functional, cell-based; settings: light or radiation study
[18] = Phototoxicity in human MCF7/DX cells assessed as inhibition of cell growth at 1 uM pre-incubated for 4 hrs before photoirradiation with 430 nm light and measured after 24 hrs post irradiation by MTT assay; assay type: functional; settings: light or radiation study, read-out: GI
MCF7 [19] = test: Phototoxicity in wild type human MCF7 cells assessed as inhibition of cell growth at 1 uM pre-incubated for 24 hrs before photoirradiation with 430 nm light and measured after 24 hrs post irradiation by MTT assay; assay type: functional; settings: MCF7, light or radiation study, read-out: GI
MCF7 [20] = test: Phototoxicity in wild type human MCF7 cells assessed as inhibition of cell growth at 1 uM pre-incubated for 4 hrs before photoirradiation with 430 nm light and measured after 24 hrs post irradiation by MTT assay; assay type: functional; settings: MCF7, light or radiation study, read-out: GI
[21] = Phototoxicity in human MCF7/DX cells assessed as inhibition of cell growth at 1 uM pre-incubated for 24 hrs before photoirradiation with 430 nm light and measured after 24 hrs post irradiation by MTT assay; assay type: functional; settings: light or radiation study, read-out: GI
[22] = Phototoxicity in human SCC172 cells assessed as reduction in cell viability pre-incubated for 1 hr before photo-irradiation with 700 mW-630 nm laser light for 15 mins by MTT assay; assay type: functional, cell-based; settings: SCC172, light or radiation study
[23] = Dark toxicity in human MDA-MB-231 cells assessed as reduction in cell viability by MTT assay; assay type: cell-based
[24] = Dark toxicity in Chinese hamster AS52 cells assessed as cloning efficiency at 1 uM; assay type: cell-based, Cricetulus griseus
[25] = Dark toxicity in human HeLa cells assessed as reduction in cell viability by MTT assay; assay type: cell-based
HCT-116 = test: Phototoxicity in human HCT116 cells assessed as reduction in cell viability pre-incubated for 1 hr before photo-irradiation with 700 mW-630 nm laser light for 15 mins by MTT assay; assay type: functional, cell-based; settings: HCT-116, light or radiation study
MCF-10A = test: Phototoxicity in human MCF10A cells assessed as reduction in cell viability pre-incubated for 1 hr before photo-irradiation with 700 mW-630 nm laser light for 15 mins by MTT assay; assay type: cell-based; settings: light or radiation study
[26] = Dark toxicity in human MCF10A cells assessed as reduction in cell viability by MTT assay; assay type: cell-based, MCF-10A
[27] = Dark toxicity in human SCC131 cells assessed as reduction in cell viability by MTT assay; assay type: cell-based
[28] = Dark toxicity in human MIAPaCa2 cells assessed as reduction in cell viability by MTT assay; assay type: cell-based, MIA PaCa-2
L5178Y = test: Phototoxicity in mouse L5178Y cells assessed as cell viability at 0.5 uM under irradiation by visible light at 337.5 kJ/m2 between 400 to 800 nm; assay type: functional; settings: light or radiation study, read-out: Activity
[29] = Dark toxicity in human MCF7 cells assessed as reduction in cell viability by MTT assay; assay type: cell-based
[30] = Dark toxicity in human SCC172 cells assessed as reduction in cell viability by MTT assay; assay type: cell-based
MIA PaCa-2 = test: Phototoxicity in human MIAPaCa2 cells assessed as reduction in cell viability pre-incubated for 1 hr before photo-irradiation with 700 mW-630 nm laser light for 15 mins by MTT assay; assay type: functional, cell-based; settings: MIA PaCa-2, light or radiation study
[31] = Dark toxicity in human SiHa cells assessed as reduction in cell viability by MTT assay; assay type: cell-based
[32] = Phototoxicity in Chinese hamster AS52 cells assessed as cloning efficiency at 1 uM under irradiation by visible light at 337.5 kJ/m2 between 400 to 800 nm; assay type: functional, Cricetulus griseus
MDA-MB-231 = test: Phototoxicity in human MDA-MB-231 cells assessed as reduction in cell viability pre-incubated for 1 hr before photo-irradiation with 700 mW-630 nm laser light for 15 mins by MTT assay; assay type: functional, cell-based; settings: MDA-MB-231, light or radiation study
SiHa = test: Phototoxicity in human SiHa cells assessed as reduction in cell viability pre-incubated for 1 hr before photo-irradiation with 700 mW-630 nm laser light for 15 mins by MTT assay; assay type: functional, cell-based; settings: light or radiation study
[33] = Dark toxicity in human HCT116 cells assessed as reduction in cell viability by MTT assay; assay type: cell-based, HCT-116
[34] = Phototoxicity in human SCC131 cells assessed as reduction in cell viability pre-incubated for 1 hr before photo-irradiation with 700 mW-630 nm laser light for 15 mins by MTT assay; assay type: functional, cell-based; settings: SCC131, light or radiation study
HeLa [35] = test: Phototoxicity in human HeLa cells assessed as reduction in cell viability pre-incubated for 1 hr before photo-irradiation with 700 mW-630 nm laser light for 15 mins by MTT assay; assay type: functional, cell-based; settings: light or radiation study
[36] = Dark toxicity in mouse L5178Y cells assessed as cell viability at 0.5 uM; assay type: cell-based; settings: read-out: Activity
MCF7 [37] = test: Phototoxicity in human MCF7 cells assessed as reduction in cell viability pre-incubated for 1 hr before photo-irradiation with 700 mW-630 nm laser light for 15 mins by MTT assay; assay type: functional, cell-based; settings: MCF7, light or radiation study
HeLa [38] = test: Phototoxicity in human HeLa cells assessed as reduction in cell viability in presence of irradiation with white light; assay type: functional, cell-based; settings: light or radiation study
HeLa [39] = test: Phototoxicity in human HeLa cells assessed as reduction in cell viability in presence of irradiation with 700 to 1000 nm near-infrared light; assay type: functional, cell-based; settings: light or radiation study
[40] = Phototoxicity in human keloid fibroblasts assessed as cell viability at 2 to 8 umol/L pre-incubated for 4 hrs before 0.5 J.cm2 UVA irradiation by MTT assay; assay type: functional

CCN1/C(=C\C=C\c2sc3cc4c(cc3[n+]2CC)sc(/C=C/C=C2\N(CC)c3ccccc3C2(C)C)[n+]4CC)C(C)(C)c2ccccc21
IC50 at 24 h [1]: 20 µM
IC50 at 24 h [2]: 20 µM
IC50 at 24 h [3]: 20 µM
IC50 (PBMC [4]): 20 µM
Activity (PBMC [5]): <= 70%
IC50 (B16-F10): 5 µM
IC50 [6]: 5 µM

CCN1/C(=C/C(C)=C/c2sc3ccccc3[n+]2CC)Sc2ccccc21
inhibition of growth at 1 µM [7]: 20%
inhibition of growth at 1 µM (MCF7 [8]): 80%
inhibition of growth at 1 µM [9]: 20%
inhibition of growth at 1 µM (MCF7 [10]): 50%
inhibition of growth at 1 µM (MCF7 [11]): 60%
inhibition at 24 h, 1 µM [12]: 20%
inhibition at 24 h, 1 µM [13]: 10%
inhibition of growth at 1 µM (MCF7 [14]): 60%
inhibition of growth at 1 µM [15]: 60%
inhibition of growth at 1 µM [16]: > 80%

COC(=O)c1ccc(C2=C3C(Br)=c4sc(-c5ccc(Br)s5)cc4=[N+]3[B-](F)(F)n3c2cc2sc(-c4ccc(Br)s4)cc23)cc1
IC50 (HeLa [17]): 7.12 µM

CCN1C(=O)/C(=C\C=C2/SCCN2C)OC1=S
inhibition at 24 h, 1 µM [12]: 20%
inhibition of growth at 1 µM [18]: 40%
inhibition at 24 h, 1 µM [13]: 10%
inhibition of growth at 1 µM (MCF7 [19]): 20%
inhibition of growth at 1 µM (MCF7 [20]): > 40%
inhibition of growth at 1 µM [21]: 10%

O=C1C(I)=C(O)C(=C2C(=O)C(c3c(O)c(I)c(O)c(I)c3O)=C2O)C(O)=C1I
IC50 [22]: 34.7 µM
IC50 [23]: > 50 µM
Activity [24]: 90%
IC50 [25]: > 50 µM
IC50 (HCT-116): 26 µM
IC50 (MCF-10A): 44.7 µM
IC50 [26]: > 50 µM
IC50 [27]: > 50 µM
IC50 [28]: > 50 µM
viability at 0.5 µM (L5178Y): < 10%
IC50 [29]: > 50 µM
IC50 [30]: > 50 µM
IC50 (MIA PaCa-2): 28.3 µM
IC50 [31]: > 50 µM
Activity [32]: 10%
IC50 (MDA-MB-231): 19.8 µM
IC50 (SiHa): 33.7 µM
IC50 [33]: > 50 µM
IC50 [34]: 30.7 µM
IC50 (HeLa [35]): 36 µM
viability at 0.5 µM [36]: 90%
IC50 (MCF7 [37]): 25.3 µM

Nc1ccc(-c2ccc3nc4ccc(-c5ccc(N)cc5)cc4[s+]c3c2)cc1
EC50 (HeLa [38]): 6 µM
EC50 (HeLa [39]): 8 µM

Nc1ccc(-c2nc3ccccc3s2)cc1
Activity [40]: 50%
